According to ChEMBL document CHEMBL3045465, “Development of Selective Ligands for Benzodiazepine Receptor Subtypes by Manipulating the Substituents at Positions 3- and 7- of Optically Active BzR Ligands” (Med Chem Res, 2004):

Key:
Homo sapiens = organism: Homo sapiens; test: Selectivity ratio of Ki for Homo sapiens (human) recombinant GABAA alpha1beta3gamma2 receptor to Ki for Homo sapiens (human) recombinant GABAA alpha5beta3gamma2 receptor
[1] = biological target: GABA A receptor alpha-4/beta-3/gamma-2 (Homo sapiens, UniProt P18507+P28472+P48169); test: Displacement of [3H]-Ro 15-4513 from Homo sapiens (human) recombinant GABAA alpha4beta3gamma2 receptor expressed in Ltk- cells after 1 hr by liquid scintillation counting; format: cell-based
[2] = biological target: T1, GABA-A receptor; alpha-3/beta-3/gamma-2 (Homo sapiens, UniProt P18507+P28472+P34903); test: Displacement of [3H]-Ro 15-1788 from Homo sapiens (human) recombinant GABAA alpha3beta3gamma2 receptor expressed in Ltk- cells after 1 hr by liquid scintillation counting; format: cell-based
T1 sequence (P18507 whole entry): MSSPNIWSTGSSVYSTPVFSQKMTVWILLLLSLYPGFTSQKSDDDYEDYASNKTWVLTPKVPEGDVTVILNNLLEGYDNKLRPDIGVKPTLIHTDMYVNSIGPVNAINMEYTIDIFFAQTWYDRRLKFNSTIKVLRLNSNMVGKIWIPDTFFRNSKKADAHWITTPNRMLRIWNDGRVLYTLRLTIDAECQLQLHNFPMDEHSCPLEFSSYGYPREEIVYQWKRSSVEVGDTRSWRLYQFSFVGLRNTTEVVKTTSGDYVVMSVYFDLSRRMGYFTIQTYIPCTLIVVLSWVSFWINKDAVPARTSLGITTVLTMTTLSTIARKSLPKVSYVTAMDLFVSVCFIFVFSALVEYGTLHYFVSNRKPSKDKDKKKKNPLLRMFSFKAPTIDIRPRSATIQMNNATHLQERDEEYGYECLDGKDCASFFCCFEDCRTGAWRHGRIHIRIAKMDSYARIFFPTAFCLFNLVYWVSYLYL
T1 sequence (P28472 whole entry): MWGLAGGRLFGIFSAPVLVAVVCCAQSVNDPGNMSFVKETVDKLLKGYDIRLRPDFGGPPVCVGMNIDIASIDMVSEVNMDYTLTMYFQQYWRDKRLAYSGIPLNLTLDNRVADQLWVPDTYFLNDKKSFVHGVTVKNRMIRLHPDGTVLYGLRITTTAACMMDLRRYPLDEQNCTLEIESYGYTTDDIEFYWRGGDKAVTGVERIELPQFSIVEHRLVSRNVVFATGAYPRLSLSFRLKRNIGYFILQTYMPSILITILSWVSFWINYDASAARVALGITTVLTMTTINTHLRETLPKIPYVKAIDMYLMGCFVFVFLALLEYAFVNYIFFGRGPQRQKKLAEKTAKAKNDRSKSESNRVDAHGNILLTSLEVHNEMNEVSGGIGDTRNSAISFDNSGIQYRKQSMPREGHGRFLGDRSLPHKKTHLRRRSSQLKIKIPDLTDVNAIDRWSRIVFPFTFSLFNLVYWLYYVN
T1 sequence (P34903 whole entry): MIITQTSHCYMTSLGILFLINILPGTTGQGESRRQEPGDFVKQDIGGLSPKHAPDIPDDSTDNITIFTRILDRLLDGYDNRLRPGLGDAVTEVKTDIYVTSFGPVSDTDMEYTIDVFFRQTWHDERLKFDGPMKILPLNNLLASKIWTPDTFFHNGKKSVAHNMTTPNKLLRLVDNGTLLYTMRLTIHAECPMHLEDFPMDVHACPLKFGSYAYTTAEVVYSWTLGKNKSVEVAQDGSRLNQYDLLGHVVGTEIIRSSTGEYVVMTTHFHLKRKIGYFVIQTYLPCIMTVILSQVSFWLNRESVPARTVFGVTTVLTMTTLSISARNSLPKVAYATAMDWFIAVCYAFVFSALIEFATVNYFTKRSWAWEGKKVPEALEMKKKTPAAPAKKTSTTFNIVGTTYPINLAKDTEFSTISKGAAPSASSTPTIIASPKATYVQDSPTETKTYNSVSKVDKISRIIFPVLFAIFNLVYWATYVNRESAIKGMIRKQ

[3] = biological target: T2, GABA-A receptor; alpha-2/beta-3/gamma-2 (Homo sapiens, UniProt P18507+P28472+P47869); test: Displacement of [3H]-Ro 15-1788 from Homo sapiens (human) recombinant GABAA alpha2beta3gamma2 receptor expressed in Ltk- cells after 1 hr by liquid scintillation counting; format: cell-based
T2 sequence (P18507 whole entry): T1 sequence (P18507 whole entry)
T2 sequence (P28472 whole entry): T1 sequence (P28472 whole entry)
T2 sequence (P47869 whole entry): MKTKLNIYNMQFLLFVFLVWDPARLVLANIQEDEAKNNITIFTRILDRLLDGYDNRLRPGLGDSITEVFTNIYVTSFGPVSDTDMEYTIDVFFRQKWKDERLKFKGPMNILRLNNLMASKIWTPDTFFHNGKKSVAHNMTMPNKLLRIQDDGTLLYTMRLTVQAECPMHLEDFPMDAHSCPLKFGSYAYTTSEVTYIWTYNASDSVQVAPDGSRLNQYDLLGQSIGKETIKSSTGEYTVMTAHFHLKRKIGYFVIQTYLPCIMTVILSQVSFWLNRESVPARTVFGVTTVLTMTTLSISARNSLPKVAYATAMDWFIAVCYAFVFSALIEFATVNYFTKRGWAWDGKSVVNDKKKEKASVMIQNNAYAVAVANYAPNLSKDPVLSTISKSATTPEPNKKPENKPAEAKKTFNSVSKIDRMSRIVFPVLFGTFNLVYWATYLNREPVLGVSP

[4] = biological target: T3, GABA-A receptor; alpha-1/beta-3/gamma-2 (Homo sapiens, UniProt P14867+P18507+P28472); test: Displacement of [3H]-Ro 15-1788 from Homo sapiens (human) recombinant GABAA alpha1beta3gamma2 receptor expressed in Ltk- cells after 1 hr by liquid scintillation counting; format: cell-based
T3 sequence (P14867 whole entry): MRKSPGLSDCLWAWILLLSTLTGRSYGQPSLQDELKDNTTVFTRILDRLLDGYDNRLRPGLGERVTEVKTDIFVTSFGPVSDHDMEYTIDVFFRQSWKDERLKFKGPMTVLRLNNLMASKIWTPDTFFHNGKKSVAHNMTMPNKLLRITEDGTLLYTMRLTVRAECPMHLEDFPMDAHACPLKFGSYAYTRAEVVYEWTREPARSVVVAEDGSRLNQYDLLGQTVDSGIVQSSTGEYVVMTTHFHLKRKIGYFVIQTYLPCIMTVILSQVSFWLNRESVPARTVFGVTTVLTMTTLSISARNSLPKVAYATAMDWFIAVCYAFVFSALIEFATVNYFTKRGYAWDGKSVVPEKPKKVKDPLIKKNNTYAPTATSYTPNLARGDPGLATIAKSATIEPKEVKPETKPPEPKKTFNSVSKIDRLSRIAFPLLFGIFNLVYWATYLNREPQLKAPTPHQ
T3 sequence (P18507 whole entry): T1 sequence (P18507 whole entry)
T3 sequence (P28472 whole entry): T1 sequence (P28472 whole entry)

[5] = biological target: T4, GABA-A receptor; alpha-5/beta-3/gamma-2 (Homo sapiens, UniProt P18507+P28472+P31644); test: Displacement of [3H]-Ro 15-1788 from Homo sapiens (human) recombinant GABAA alpha5beta3gamma2 receptor expressed in Ltk- cells after 1 hr by liquid scintillation counting; format: cell-based
T4 sequence (P18507 whole entry): T1 sequence (P18507 whole entry)
T4 sequence (P28472 whole entry): T1 sequence (P28472 whole entry)
T4 sequence (P31644 whole entry): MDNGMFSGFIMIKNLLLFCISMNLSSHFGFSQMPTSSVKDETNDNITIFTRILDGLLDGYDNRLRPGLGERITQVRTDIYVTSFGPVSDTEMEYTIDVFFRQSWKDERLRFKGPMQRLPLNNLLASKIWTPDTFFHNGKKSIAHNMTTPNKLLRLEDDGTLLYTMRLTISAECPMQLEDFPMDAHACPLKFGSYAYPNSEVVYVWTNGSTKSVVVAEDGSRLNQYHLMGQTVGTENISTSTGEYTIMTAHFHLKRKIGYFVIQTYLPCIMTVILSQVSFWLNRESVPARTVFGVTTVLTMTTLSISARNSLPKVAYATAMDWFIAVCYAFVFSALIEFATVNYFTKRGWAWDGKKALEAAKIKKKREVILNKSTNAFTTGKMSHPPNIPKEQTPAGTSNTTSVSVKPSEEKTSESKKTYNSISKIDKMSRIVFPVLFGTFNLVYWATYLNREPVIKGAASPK

[6] = biological target: GABA-A receptor; alpha-6/beta-3/gamma-2 (Homo sapiens, UniProt P18507+P28472+Q16445); test: Displacement of [3H]-Ro 15-4513 from Homo sapiens (human) recombinant GABAA alpha6beta3gamma2 receptor expressed in Ltk- cells after 1 hr by liquid scintillation counting; format: cell-based
GABA-A receptor; alpha-6/beta-3/gamma-2, sequence (Q16445 whole entry, one chain of several): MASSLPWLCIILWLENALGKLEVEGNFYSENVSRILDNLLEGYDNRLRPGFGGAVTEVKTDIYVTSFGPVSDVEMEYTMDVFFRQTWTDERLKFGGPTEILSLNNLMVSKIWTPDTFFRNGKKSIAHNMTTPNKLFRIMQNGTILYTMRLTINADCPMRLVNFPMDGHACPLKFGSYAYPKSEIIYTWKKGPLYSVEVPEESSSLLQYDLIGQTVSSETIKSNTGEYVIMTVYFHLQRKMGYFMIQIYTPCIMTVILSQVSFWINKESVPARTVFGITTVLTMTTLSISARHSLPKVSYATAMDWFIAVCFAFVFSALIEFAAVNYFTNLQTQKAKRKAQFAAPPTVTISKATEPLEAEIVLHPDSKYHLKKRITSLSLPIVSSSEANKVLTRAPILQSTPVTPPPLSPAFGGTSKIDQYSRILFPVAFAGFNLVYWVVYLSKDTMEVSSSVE

GABA A receptor alpha-4/beta-3/gamma-2, sequence (P48169 whole entry, one chain of several): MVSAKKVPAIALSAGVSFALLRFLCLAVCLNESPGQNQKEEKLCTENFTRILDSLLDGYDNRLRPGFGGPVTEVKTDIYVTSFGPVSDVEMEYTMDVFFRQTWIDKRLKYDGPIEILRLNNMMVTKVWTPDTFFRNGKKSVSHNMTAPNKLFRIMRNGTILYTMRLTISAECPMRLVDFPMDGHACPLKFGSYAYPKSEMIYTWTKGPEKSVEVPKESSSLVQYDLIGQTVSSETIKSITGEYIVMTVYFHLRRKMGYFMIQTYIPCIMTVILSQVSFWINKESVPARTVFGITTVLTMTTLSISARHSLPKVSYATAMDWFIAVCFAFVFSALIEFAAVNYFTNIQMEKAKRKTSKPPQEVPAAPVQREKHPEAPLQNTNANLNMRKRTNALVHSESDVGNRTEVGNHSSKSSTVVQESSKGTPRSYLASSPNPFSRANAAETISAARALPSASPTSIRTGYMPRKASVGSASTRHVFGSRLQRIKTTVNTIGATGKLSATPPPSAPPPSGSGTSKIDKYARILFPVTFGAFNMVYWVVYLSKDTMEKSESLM

SMILES | Ratio Ki (Homo sapiens) | Ki [1] | Ki [2] | Ki [3] | Ki [4] | Ki [5] | Ki [6]
CCOC(=O)c1ncn2c1[C@@H]1CCCN1C(=O)c1cc(C#C[Si](C)(C)C)ccc1-2 | 50 |  |  |  |  |  | 
CC(C)(C)OC(=O)c1ncn2c1[C@@H]1CCCN1C(=O)c1cc(-c3ccccc3)ccc1-2 | 2.2 | 114 nM | 59 nM | 129 nM | 28 nM | 13 nM | > 333 nM
CC(C)(C)OC(=O)c1ncn2c1[C@@H]1CCCN1C(=O)c1cc(-c3ccco3)ccc1-2 | 1.1 | 11.6 nM | 15.6 nM | 16.2 nM | 1.8 nM | 1.7 nM | 46 nM
O=C(OCC(F)(F)F)c1ncn2c1[C@@H]1CCCN1C(=O)c1ccccc1-2 | 7.9 | > 333 nM | 13 nM | 34 nM | 34 nM | 4.3 nM | > 333 nM
CCOC(=O)c1ncn2c1[C@@H]1CCCN1C(=O)c1cc(OC)ccc1-2 | 108 |  |  |  |  |  | 
CC(C)(C)OC(=O)c1ncn2c1[C@@H]1CCCN1C(=O)c1cc(Br)ccc1-2 | 37.5 | 29 nM | 49 nM | 123 nM | 150 nM | 4 nM | 72 nM
O=C(OCC(F)(F)F)c1ncn2c1[C@@H]1CCCN1C(=O)c1cc(-c3ccccc3)ccc1-2 |  | > 333 nM | > 333 nM | > 333 nM | 141 nM | > 333 nM | > 333 nM
CC(C)(C)OC(=O)c1ncn2c1[C@@H]1CCCN1C(=O)c1cc(-c3cccs3)ccc1-2 | 1.3 | 119 nM | 123 nM | 120 nM | 16 nM | 12 nM | > 333 nM
O=C(OCC(F)(F)F)c1ncn2c1[C@@H]1CCCN1C(=O)c1cc(Br)ccc1-2 |  | 291 nM | 245 nM | > 333 nM | > 333 nM | 57 nM | > 333 nM
CC(C)(C)OC(=O)c1ncn2c1[C@@H]1CCCN1C(=O)c1cc(C#C[Si](C)(C)C)ccc1-2 |  | 175 nM | > 333 nM | > 333 nM | > 333 nM | 103 nM | > 333 nM
C[Si](C)(C)C#Cc1ccc2c(c1)C(=O)N1CCC[C@H]1c1c(C(=O)OCC(F)(F)F)ncn1-2 |  | > 333 nM | > 333 nM | > 333 nM | > 333 nM | 137 nM | > 333 nM
C#Cc1ccc2c(c1)C(=O)N1CCC[C@H]1c1c(C(=O)OCC(F)(F)F)ncn1-2 | 36 | 345 nM | 169 nM | 172 nM | 299 nM | 8.3 nM | 320 nM
C#Cc1ccc2c(c1)C(=O)N1CCC[C@H]1c1c(C(=O)OCC)ncn1-2 | 45 |  |  |  |  |  | 
CCOC(=O)c1ncn2c1[C@@H]1CCCN1C(=O)c1cc(Br)ccc1-2 | 49 |  |  |  |  |  | 
O=C(OCC(F)(F)F)c1ncn2c1[C@@H]1CCCN1C(=O)c1cc(-c3ccco3)ccc1-2 | 0.71 | 51 nM | 52 nM | 55 nM | 7.1 nM | 10 nM | 251 nM
C=Cc1ccc2c(c1)C(=O)N1CCC[C@H]1c1c(C(=O)OC(C)(C)C)ncn1-2 | 20.8 | 26 nM | 26 nM | 35 nM | 50 nM | 2.4 nM | 58 nM
C=Cc1ccc2c(c1)C(=O)N1CCC[C@H]1c1c(C(=O)OCC(F)(F)F)ncn1-2 | 13.6 | 175 nM | 65 nM | 55 nM | 94 nM | 6.9 nM | 292 nM
C#Cc1ccc2c(c1)C(=O)N1CCC[C@H]1c1c(C(=O)OC(C)(C)C)ncn1-2 |  | 213 nM | > 333 nM | > 333 nM | > 333 nM | 40 nM | 308 nM
